Active and inactive are the calls of the source. The rule behind the calls is not given here.
Experiments:
DNA [1] = assay: Binding affinity to Ds26 duplex DNA (unknown origin) assessed as dissociation constant by ITC analysis; assay type: nucleic-acid assay
Quadruplex DNA [2] = assay: Binding affinity to Telo21 G4 DNA (unknown origin) assessed as change in enthalpy at 400 uM by ITC analysis; assay type: nucleic-acid assay
Quadruplex DNA [3] = assay: Binding affinity to Telo21 G4 DNA (unknown origin) assessed as change in gibbs free energy at 400 uM by ITC analysis; assay type: nucleic-acid assay
[4] = Binding affinity to antisense i-hTERT DNA assessed as dissociation constant by ITC analysis; set-up: species or system Homo sapiens
Homo sapiens = organism: Homo sapiens; assay: Binding affinity to antisense i-hTERT DNA assessed as change in gibbs free energy at 400 uM by ITC analysis
Quadruplex DNA [5] = assay: Binding affinity to hTERT G4 DNA assessed as thermal stability by measuring change in melting temperature at 400 uM […]; assay type: nucleic-acid assay; details: Homo sapiens
[6] = Selectivity ratio of binding affinity to human TERT G4 DNA to binding affinity to Pu27 G4 DNA (unknown origin)
[7] = Selectivity ratio of binding affinity to human TERT G4 DNA to binding affinity to Ds26 duplex DNA (unknown origin)
Quadruplex DNA [8] = assay: Binding affinity to human TERT G4 DNA assessed as adduct formation by measuring appearance of new peak at 5 uM by ultraviolet spectrophotometric titration method; assay type: nucleic-acid assay
Quadruplex DNA [9] = assay: Binding affinity to human TERT G4 DNA in Tris-HCl buffer at pH 7.4 assessed as increase in CD signal at 5 to 100 uM by circular dichroism spectrometer; assay type: nucleic-acid assay; details: dose 5-100 µM
MDA-MB-231 [10] = assay: Cytotoxicity against telomerase-positive human MDA-MB-231 cells assessed as inhibition of cell growth incubated for 48 hrs by MTT assay; assay type: functional, cell-based; details: MDA-MB-231, 48 h
[11] = Cytotoxicity against human HK-2 cells assessed as inhibition of cell growth incubated for 48 hrs by MTT assay; assay type: toxicity, cell-based
[12] = Cytotoxicity against HUVEC cells assessed as inhibition of cell growth incubated for 48 hrs by MTT assay; assay type: toxicity, cell-based; details: human
DNA [13] = assay: Binding affinity to DNA in telomerase-positive live human MDA-MB-231 cells assessed as reduction in fluorescence at 5 uM preincubated for 10 mins followed by washout and DNase I addition measured after 2 hrs by Hoechst 33342 staining based confocal microscopic analysis; assay type: cell-based
DNA [14] = assay: Binding affinity to DNA in telomerase-positive live human MDA-MB-231 cells at 5 uM preincubated for 10 mins followed by washout and RNase A addition measured after 2 hrs by Hoechst 33342 staining based confocal microscopic analysis; assay type: cell-based
MDA-MB-231 [15] = assay: Inhibition of cell migration in human MDA-MB-231 cells at 0 to 1.5 uM measured after 48 hrs by crystal violet staining based microscopic analysis; assay type: functional; details: dose 0-1.5 µM
MDA-MB-231 [16] = assay: Induction of cell cycle arrest in human MDA-MB-231 cells assessed as accumulation of cells at G2/M phase at 0.5 to 1.5 uM measured after 48 hrs by 7-aminoactinomycin D/RNase staining based flow cytometry analysis (reference value: 14.3%); assay type: functional; details: dose 0.5-1.5 µM
MDA-MB-231 [17] = assay: Induction of mitochondrial dysfunction in human MDA-MB-231 cells assessed as downregulation of mitochondrial respiratory complex IV-COX II expression incubated for 48 hrs by Western blot analysis; assay type: functional, cell-based; details: dose 0-1.5 µM
MDA-MB-231 [18] = assay: Induction of mitochondrial dysfunction in human MDA-MB-231 cells assessed as mitochondrial membrane potential impairment at 0 to 1.5 uM incubated for 48 hrs by Hoechst33342 staining based microscopic analysis; assay type: functional, cell-based; details: dose 0-1.5 µM
MDA-MB-231 [19] = assay: Disruption of energy metabolism in human MDA-MB-231 cells assessed as reduction in cellular energy production by measuring reduction in ATP production at 0 to 1.5 uM measured after 2 hrs by Seahorse XF24 analyzer; assay type: functional, cell-based; details: dose 0-1.5 µM
MDA-MB-231 [20] = assay: Induction of ferroptosis in human MDA-MB-231 cells assessed as disruption of iron metabolism by measuring increase in bright yellow fluorescent spots measured after 48 hrs by FerroOrange/Hoechst 33342 staining based confocal microscopic analysis; assay type: functional, cell-based; details: dose 0-1.5 µM
MDA-MB-231 [21] = assay: Induction of autophagy in human MDA-MB-231 cells assessed as upregulation of LC3-II protein expression at 0 to 1.5 uM measured after 48 hrs by Western blot analysis; assay type: functional, cell-based; details: dose 0-1.5 µM
MDA-MB-231 [22] = assay: Downregulation of ND2 gene expression in human MDA-MB-231 cells at 1 uM measured after 48 hrs by RNA-seq analysis; assay type: functional, cell-based
MDA-MB-231 [23] = assay: Downregulation of ND6 gene expression in human MDA-MB-231 cells at 1 uM measured after 48 hrs by RNA-seq analysis; assay type: functional, cell-based
[24] = Upregulation of PLK1 gene expression in human MDA-MB-231 cells assessed as fold change at 1 uM measured after 48 hrs by RNA-seq analysis relative to control; assay type: functional
[25] = Upregulation of EGF gene expression in human MDA-MB-231 cells assessed as fold change at 1 uM measured after 48 hrs by RNA-seq analysis relative to control; assay type: functional
[26] = Upregulation of TGFB3 gene expression in human MDA-MB-231 cells assessed as fold change at 1 uM measured after 48 hrs by RNA-seq analysis relative to control; assay type: functional
[27] = Upregulation of CDKN1A gene expression in human MDA-MB-231 cells assessed as fold change at 1 uM measured after 48 hrs by RNA-seq analysis relative to control; assay type: functional
[28] = Upregulation of CCND2 gene expression in human MDA-MB-231 cells assessed as fold change at 1 uM measured after 48 hrs by RNA-seq analysis relative to control; assay type: functional
[29] = Upregulation of NFATC4 gene expression in human MDA-MB-231 cells assessed as fold change at 1 uM measured after 48 hrs by RNA-seq analysis relative to control; assay type: functional
[30] = Toxicity in female Balb/c nude mouse xenografted with human MDA-MB-231 cells assessed as reduction in body weight at 2 to 5 mg/kg, iv administered via tail vein every 2 days for 16 days; assay type: organism-based; details: in vivo, 384 h, dose 2-5 mg/kg, time 16 day
MDA-MB-231 [31] = assay: Antitumor activity against human MDA-MB-231 cells xenografted in female Balb/c mouse assessed as inhibition of tumor cell proliferation at 5 mg/kg, iv administered via tail vein every 2 days for 16 days by TUNEL assay; assay type: functional, organism-based; details: time 16.0 day
[32] = Toxicity in female Balb/c nude mouse xenografted with human MDA-MB-231 cells assessed as change in AST level at 2 to 5 mg/kg, iv administered via tail vein every 2 days for 16 days; assay type: organism-based; details: in vivo, 384 h, dose 2-5 mg/kg, time 16 day
[33] = Toxicity in female Balb/c nude mouse xenografted with human MDA-MB-231 cells assessed as change in mean corpuscular hemoglobin concentration at 2 to 5 mg/kg, iv administered via tail vein every 2 days for 16 days; assay type: organism-based; details: in vivo, 384 h, dose 2-5 mg/kg, time 16 day
[34] = Toxicity in female Balb/c nude mouse xenografted with human MDA-MB-231 cells assessed as pathological changes in liver at 2 to 5 mg/kg, iv administered via tail vein every 2 days for 16 days by H and E staining based analysis; assay type: organism-based; details: in vivo, 384 h, dose 2-5 mg/kg, time 16 day
[35] = Toxicity in female Balb/c nude mouse xenografted with human MDA-MB-231 cells assessed as pathological changes in lung at 2 to 5 mg/kg, iv administered via tail vein every 2 days for 16 days by H and E staining based analysis; assay type: organism-based; details: in vivo, 384 h, dose 2-5 mg/kg, time 16 day

For `C[n+]1c(/C=C/c2c[nH]c3ccccc23)cc(/C=C2\Sc3ccccc3N2CCCN2CCC(C(F)(F)F)CC2)c2ccccc21.[I-]`, the Kd (DNA [1]) was 18.9 µM, the deltaH (Quadruplex DNA [2]) was -1.09 kcal/mol and the deltaG (Quadruplex DNA [3]) was -7.49 kcal/mol. The Kd [4] was 2.79 µM, the deltaG (Homo sapiens) was -7.58 kcal/mol and the ΔTm (Quadruplex DNA [5]) was 11.7 °C. For the same compound, the Selectivity ratio [6] was 2, the Selectivity ratio [7] was 3 and the Activity (Quadruplex DNA [8]) was “Active”. The Activity (Quadruplex DNA [9]) was “Active”, the IC50 (MDA-MB-231 [10]) was 1 µM and the IC50 at 48 h [11] was 9.4 µM. For the same compound, the IC50 at 48 h [12] was 8.7 µM, the Activity (DNA [13]) was “Active” and the Activity (DNA [14]) was “Active”. The inhibition (MDA-MB-231 [15]) was “Active”, the Activity (MDA-MB-231 [16]) was 32% and the Activity (MDA-MB-231 [17]) was “Dose-Dependent Effect”. The Activity (MDA-MB-231 [18]) was “Active”, the Activity (MDA-MB-231 [19]) was “Active” and the Activity (MDA-MB-231 [20]) was “Dose-Dependent Effect”. For the same compound, the Activity (MDA-MB-231 [21]) was “Active”, the Activity (MDA-MB-231 [22]) was “Active” and the Activity (MDA-MB-231 [23]) was “Active”. For the same compound, the “fold change (FC)” value [24] was >2, the “fold change (FC)” value [25] was >2 and the “fold change (FC)” value [26] was >2. The “fold change (FC)” value [27] was >2, the “fold change (FC)” value [28] was >2 and the “fold change (FC)” value [29] was >2. For the same compound, the Activity [30] was “Non-Toxic”, the Activity (MDA-MB-231 [31]) was “Active” and the Activity [32] was “Non-Toxic”. For the same compound, the Activity [33] was “Non-Toxic”, the Activity [34] was “Non-Toxic” and the Activity [35] was “Non-Toxic”.
